Data published in US8859625B2, “Methods to prepare penta-1,4-dien-3-ones and substituted cyclohexanones and derivatives with antitumoral and antiparasitic properties, the compounds and their uses” (Universidade Bandeirante de Sao Paulo-Academia, Paulista …, priority 2006, dated 2014).
In brackets after ≈: the same amount, converted by molar mass. Marks after values point to notes of the source that are not given here.

Experiments:
[1] = system: peritoneal normal macrophages; test: Cytotoxic effect on peritoneal normal macrophages by the MTT method; format: cell-based, Balb-C mice; conditions: Mus musculus, Macrophage, diluted in Miglyol 810, 24 hours
Procedure: Cytotoxic Effect of HB-1 Compound on Peritoneal Normal Macrophages Assessed by the MTT Method.
Peritoneal macrophages were obtained from normal Balb-C mice through the following procedure: abdominal cavities of the animals were opened under sterile conditions under a laminar flow and exposed. A 2 mL volume of saline solution, containing 5000 U frosty heparin (Liquemine-Roche), was injected into the cavity, followed by a massage and collection of the peritoneal wash irrigation liquid, centrifuged at 2000 rpm for 10 minutes at 4° C.
The suspension was resuspended with RPMI-1640 culture medium supplemented with 10% bovine fetal serum, with the count cell number adjusted to 10^6/mL in a Neubauer chamber. Aliquots of the macrophages were cultivated on plates with 96 flat bottom wells, incubated with and without HB-1 compound diluted in Miglyol 810®. After 24 hours, the plates were submitted to the cytotoxic and antiproliferative effect assessment by the MTT calorimetric method.

[2] = system: promastigote form of Leishmania (L) amazonensis (LV79 isolate); test: Promastigote viability by the MTT method in RPMI medium; format: cell-based
Procedure: (§1) Viability and/or cellular proliferative assays of promastigote and amastigote forms are also performed by the MTT (diphenyl tetrazolium 3-[4,5-dimethylthiazol-2il]2,5-bromide) method as described by Moreira, et al. (Moreira, M. E. C., Del Portillo, H. A., Milder, R. V., Balanco, J. M. F. and Barcinski, M. A. Heat shock induction of apoptosis in promastigotes of the unicellular organism Leishmania (Leishmania) amazonensis, J. Cell Physiol 167, 305-313, 1996), modified.
(§2) After incubation of parasitic forms with the compounds, as described above, for predetermined periods of time for each experiment (24, 48, 72 hours, etc.), an 1.0 mL aliquot of cellular suspension is collected from each culture tube or vial and transferred to microcentrifuge tubes, where they are centrifuged at 14.000 rpm for 3 minutes, the culture medium is aspirated and discharged. To the sedimented cells are add 200 μL of PBS. After that, the volume in PBS of the cellular suspensions is splitted into two wells (duplicates of 100 μL each) of a 96 well culture plate. To each duplicate, […] of MTT (5 mg/mL stock solution, […]) are added. After 1 h or 1 h 30 min, at a temperature of 22° C. (promastigotes) or 34° C. (amastigotes), 100 μL of 10% SDS are added to each well to interrupt the reaction, to lyse the cells and to dissolve the formazan crystals, resulting in an homogeneous blue solution appropriate to the absorbance measure by a spectrophotometer for culture microplates (3550 BIORAD model, Richmond, Calif.), at 595 nm as test wavelength and 690 nm as the reference wavelength.
(§3) The optical density (O.D.) values correspond to MTT enzymatic reduction by the metabolic active cells. Consequently, the O.D. is directly proportional to the number of viable cells of the cellular suspension. The progressive increase of O.D. indicates cellular proliferation. Results are expressed as arithmetic average of the optical density duplicates.
Blanks of reaction are obtained by incubating of the specific medium employed in each assay, in addition to MTT, and different HB-1 concentrations. The brownish-yellow color of HB-1 exerts certain interference on the colorimetric assay at different magnitudes, according to the medium and to HB-1 concentration. In general the O.D. blank ranged among assays from 0.002 to 0.020.
In this assay, viability of the promastigote form Leishmania is assessed by the MTT method, when incubated in RPMI medium, in the presence of HB-1 or of its respective controls in DMSO. It is also possible to verify if the effect of HB-1 could be detected in the stationary phase of the growth curve.
For the incubations, promastigotes of the LV79 isolate, in 1st passage and in Day 7 of culture, are employed, from a 1.0×10^6/mL as initial inoculum. The final reaction volume is of 3.0 mL. The results of the viability determination for the promastigote forms of Leishmania (L) amazonensis treated with HB-1 in RPMI medium are shown in the next Table and in FIG. 35.

[3] = system: amastigote-like forms of Leishmania (L) amazonensis; test: Viability of amastigote-like forms from axenic culture by MTT; format: cell-based; conditions: for O.D. (optical density): amastigote-like forms
Procedure: Compounds are solubilized with dimethyl sulfoxide (DMSO) to produce a stock solution from which samples with different concentrations are obtained, by adding the culture medium in sufficient volume as required to attain the first desired concentration with the other concentrations being obtained by serial dilution of this first one, at ratio 2. The cultures are incubated at 22° C. or 34° C. for promastigotes and amastigotes, respectively.
as §1, §2, §3
Considering that the amastigote forms are those that multiply inside a vertebrate host and, consequently, are responsible for the disease, it is indispensable to evaluate the viability of these forms when incubated with HB-1.
This evaluation is performed as previously described and by applying the amastigote forms obtained from an axenic culture.

COc1cc(C=CC(=O)C=Cc2ccc(O)c(OC)c2)ccc1O [HB-1, 1,5-Bis-(4-hydroxy-3-methoxy-phenyl)-penta-1,4-dien-3-one]
IC50 [1]: 16.9 µg/mL (≈ 51.8 µM) | Optical Density 595/690 nm (average value from duplicates) ([2]; HB-1 3.12 μg/mL, 24 hours): 0.062 | Optical Density 595/690 nm (average value from duplicates) ([2]; HB-1 3.12 μg/mL, 48 hours): 0.085 | Optical Density 595/690 nm (average value from duplicates) ([2]; HB-1 3.12 μg/mL, 72 hours): 0.104* | Optical Density 595/690 nm (average value from duplicates) ([2]; HB-1 3.12 μg/mL, 144 hours): 0.021 | effect in words ([2]; HB-1 6.25 μg/mL): leishmaniostatic effect | Optical Density 595/690 nm (average value from duplicates) ([2]; HB-1 6.25 μg/mL, 24 hours): 0.039 | Optical Density 595/690 nm (average value from duplicates) ([2]; HB-1 6.25 μg/mL, 48 hours): 0.033 | Optical Density 595/690 nm (average value from duplicates) ([2]; HB-1 6.25 μg/mL, 72 hours): 0.044 | Optical Density 595/690 nm (average value from duplicates) ([2]; HB-1 6.25 μg/mL, 144 hours): 0.031 | Optical Density 595/690 nm (average value from duplicates) ([2]; HB-1 12.5 μg/mL, 24 hours): 0.010 | Optical Density 595/690 nm (average value from duplicates) ([2]; HB-1 12.5 μg/mL, 48 hours): 0.004 | Optical Density 595/690 nm (average value from duplicates) ([2]; HB-1 12.5 μg/mL, 72 hours): 0.003 | Optical Density 595/690 nm (average value from duplicates) ([2]; HB-1 12.5 μg/mL, 144 hours): 0.005 | Optical Density 595/690 nm (average value from duplicates) ([2]; HB-1 25 μg/mL, 24 hours): 0.004 | Optical Density 595/690 nm (average value from duplicates) ([2]; HB-1 25 μg/mL, 48 hours): 0.005 | Optical Density 595/690 nm (average value from duplicates) ([2]; HB-1 25 μg/mL, 72 hours): 0.002 | Optical Density 595/690 nm (average value from duplicates) ([2]; HB-1 25 μg/mL, 144 hours): 0.005 | Optical Density 595/690 nm (average value from duplicates) ([2]; HB-1 50 μg/mL, 24 hours): 0.008 | Optical Density 595/690 nm (average value from duplicates) ([2]; HB-1 50 μg/mL, 48 hours): 0.004 | Optical Density 595/690 nm (average value from duplicates) ([2]; HB-1 50 μg/mL, 72 hours): 0.005 | Optical Density 595/690 nm (average value from duplicates) ([2]; HB-1 50 μg/mL, 144 hours): 0.005 | Optical Density 595/690 nm (average value from duplicates) ([2]; HB-1 100 μg/mL, 24 hours): 0.016 | Optical Density 595/690 nm (average value from duplicates) ([2]; HB-1 100 μg/mL, 48 hours): 0.012 | Optical Density 595/690 nm (average value from duplicates) ([2]; HB-1 100 μg/mL, 72 hours): 0.011 | Optical Density 595/690 nm (average value from duplicates) ([2]; HB-1 100 μg/mL, 144 hours): 0.011 | effect in words ([2]; HB-1 above 12.5 μg/mL): clear leishmanicidal effect | cell viability in words ([2]; HB-1 between 6.25 μg/mL and 100 μg/mL, since first 24 hours): irreversibly compromise cell viability | inhibition of cellular activity of amastigotes ([3]; 10 μg/mL and 20 μg/mL, first 24 hours): 100% | O.D. (optical density) ([3]; HB-1 5 μg/mL, 24 hours): 0.16 | O.D. (optical density) ([3]; HB-1 5 μg/mL, 48 hours): 0.012 | O.D. (optical density) ([3]; HB-1 5 μg/mL, 72 hours): 0.012 | O.D. (optical density) ([3]; HB-1 10 μg/mL, 24 hours): 0.010 | O.D. (optical density) ([3]; HB-1 10 μg/mL, 48 hours): 0.014 | O.D. (optical density) ([3]; HB-1 10 μg/mL, 72 hours): 0.014 | O.D. (optical density) ([3]; HB-1 20 μg/mL, 24 hours): 0.009 | O.D. (optical density) ([3]; HB-1 20 μg/mL, 48 hours): 0.012 | O.D. (optical density) ([3]; HB-1 20 μg/mL, 72 hours): 0.016 | parasites nonviable ([3]; all assayed concentrations, first 48 hours): 100%
